Source: patent US20250346593A1, “IMIDAZO(1,2-1)PYRIDINE DERIVATIVES AS RIPK2 INHIBITORS” (Interline Therapeutics, Inc., priority 2022, published 2025)
Where two headings read alike, the source gives them in different places.

Assays:
[1] = biological target: GST-RIPK2 fusion protein (human RIPK2 amino acids 1-310) (Homo sapiens (Human), UniProt O43353); test: RIPK2 binding competition assay (TR-FRET, Tracer 199)
[2] = tested on: NF-κB pathway (SEAP) in THP1-Dual cells; test: THP-1 Dual cell SEAP assay (L18-MDP stimulated); type: cell-based; settings: Homo sapiens, THP1-Dual, read-out: NFkB THP1 IC50
[3] = read-out: RIPK2 IC50, RIPK2 binding competition assay

Chain of GST-RIPK2 fusion protein (human RIPK2 amino acids 1-310) (O43353 1-310): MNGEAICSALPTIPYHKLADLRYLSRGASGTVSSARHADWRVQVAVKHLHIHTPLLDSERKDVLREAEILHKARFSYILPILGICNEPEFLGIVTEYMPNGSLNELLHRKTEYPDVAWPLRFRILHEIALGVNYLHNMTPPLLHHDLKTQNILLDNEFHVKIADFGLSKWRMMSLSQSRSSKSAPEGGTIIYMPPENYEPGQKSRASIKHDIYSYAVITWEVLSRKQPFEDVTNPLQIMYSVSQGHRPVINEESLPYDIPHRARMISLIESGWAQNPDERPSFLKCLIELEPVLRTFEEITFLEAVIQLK

SMILES | IC50 [1] | IC50 [2] | IC50 [1, 3]
COc1cc2ncc(-c3cc(F)nc(N[C@H](C)CO)c3)n2cc1S(=O)(=O)C(C)(C)C [Example 221, (2R)-2-({6-fluoro-4-[7-methoxy-6-(2-methylpropane-2-sulfonyl)imidazo[1,2-a]pyridin-3-yl]pyridin-2-yl}amino)propan-1-ol] | 1 to 2.5 nM | < 50 nM | –
COc1cc2ncc(-c3cc(F)nc(N[C@@H](C)CO)c3)n2cc1S(=O)(=O)C(C)(C)C [Example 222, (2S)-2-({6-fluoro-4-[7-methoxy-6-(2-methylpropane-2-sulfonyl)imidazo[1,2-a]pyridin-3-yl]pyridin-2-yl}amino)propan-1-ol] | 1 to 2.5 nM | < 50 nM | –
COc1cc2ncc(-c3cc(F)nc(N4CCN(C)CC4)c3)n2cc1S(=O)(=O)C(C)(C)C [Example 223, 1-{6-fluoro-4-[7-methoxy-6-(2-methylpropane-2-sulfonyl)imidazo[1,2-a]pyridin-3-yl]pyridin-2-yl}-4-methylpiperazine] | 2.5 to 20 nM | 50 to 250 nM | –
COc1cc2ncc(-c3cc(F)nc(NCC(C)(C)O)c3)n2cc1S(=O)(=O)C(C)(C)C [Example 224, 1-({6-fluoro-4-[7-methoxy-6-(2-methylpropane-2-sulfonyl)imidazo[1,2-a]pyridin-3-yl]pyridin-2-yl}amino)-2-methylpropan-2-ol] | 1 to 2.5 nM | < 50 nM | –
COc1cc2ncc(-c3cc(F)nc(NC[C@@H](C)O)c3)n2cc1S(=O)(=O)C(C)(C)C [Example 226, (2R)-1-({6-fluoro-4-[7-methoxy-6-(2-methylpropane-2-sulfonyl)imidazo[1,2-a]pyridin-3-yl]pyridin-2-yl}amino)propan-2-ol] | 1 to 2.5 nM | < 50 nM | –
COc1cc2ncc(-c3cc(F)nc(NC[C@H](C)O)c3)n2cc1S(=O)(=O)C(C)(C)C [Example 227, (2S)-1-({6-fluoro-4-[7-methoxy-6-(2-methylpropane-2-sulfonyl)imidazo[1,2-a]pyridin-3-yl]pyridin-2-yl}amino)propan-2-ol] | 1 to 2.5 nM | < 50 nM | –
COc1cc2ncc(-c3cc(F)nc(NCC(F)(F)CO)c3)n2cc1S(=O)(=O)C(C)(C)C [Example 228, 2,2-difluoro-3-({6-fluoro-4-[7-methoxy-6-(2-methylpropane-2-sulfonyl)imidazo[1,2-a]pyridin-3-yl]pyridin-2-yl}amino)propan-1-ol] | – | < 50 nM | < 1 nM
COc1cc2ncc(-c3cc(F)nc(NC[C@@H](F)CO)c3)n2cc1S(=O)(=O)C(C)(C)C [Example 229, (2R)-2-fluoro-3-({6-fluoro-4-[7-methoxy-6-(2-methylpropane-2-sulfonyl)imidazo[1,2-a]pyridin-3-yl]pyridin-2-yl}amino)propan-1-ol] | – | < 50 nM | < 1 nM
COc1cc2ncc(-c3cc(F)nc(N[C@H](C)CCO)c3)n2cc1S(=O)(=O)C(C)(C)C [Example 230, (3R)-3-({6-fluoro-4-[7-methoxy-6-(2-methylpropane-2-sulfonyl)imidazo[1,2-a]pyridin-3-yl]pyridin-2-yl}amino)butan-1-ol] | 2.5 to 20 nM | 250 to 1000 nM | –
COc1cc2ncc(-c3cc(F)nc(NC[C@H](F)CO)c3)n2cc1S(=O)(=O)C(C)(C)C [Example 231, (2S)-2-fluoro-3-({6-fluoro-4-[7-methoxy-6-(2-methylpropane-2-sulfonyl)imidazo[1,2-a]pyridin-3-yl]pyridin-2-yl}amino)propan-1-ol] | – | < 50 nM | < 1 nM
COc1cc2ncc(-c3cc(NCCCO)nc(C(F)(F)F)c3)n2cc1S(=O)(=O)C(C)(C)C [Example 232, 3-({4-[7-methoxy-6-(2-methylpropane-2-sulfonyl)imidazo[1,2-a]pyridin-3-yl]-6-(trifluoromethyl)pyridin-2-yl}amino)propan-1-ol] | 2.5 to 20 nM | 250 to 1000 nM | –
COc1cc2ncc(-c3cc(F)nc(NCCOC(F)F)c3)n2cc1S(=O)(=O)C(C)(C)C [Example 233, 4-(6-(tert-butylsulfonyl)-7-methoxyimidazo[1,2-a]pyridin-3-yl)-N-(2-(difluoromethoxy)ethyl)-6-fluoropyridin-2-amine] | – | < 50 nM | < 1 nM
COc1ccn2c(-c3cc(F)nc(NCCCO)c3)cnc2c1 [Example 234, 3-[(6-fluoro-4-{7-methoxyimidazo[1,2-a]pyridin-3-yl}pyridin-2-yl)amino]propan-1-ol] | 2.5 to 20 nM | 50 to 250 nM | –
COc1cc2ncc(-c3cc(F)nc(NCCSC)c3)n2cc1S(=O)(=O)C(C)(C)C [Example 235, 4-(6-(tert-butylsulfonyl)-7-methoxyimidazo[1,2-a]pyridin-3-yl)-6-fluoro-N-(2-(methylthio)ethyl) pyridin-2-amine] | 1 to 2.5 nM | < 50 nM | –
COc1cc2ncc(-c3cc(F)nc(N[C@@H](C)CCO)c3)n2cc1S(=O)(=O)C(C)(C)C [Example 236, (3S)-3-({6-fluoro-4-[7-methoxy-6-(2-methylpropane-2-sulfonyl)imidazo[1,2-a]pyridin-3-yl]pyridin-2-yl}amino)butan-1-ol] | – | < 50 nM | < 1 nM
COc1cc2ncc(-c3cc(F)nc(NC(C)(C)CO)c3)n2cc1S(=O)(=O)C(C)(C)C [Example 237, 2-({6-fluoro-4-[7-methoxy-6-(2-methylpropane-2-sulfonyl)imidazo[1,2-a]pyridin-3-yl]pyridin-2-yl}amino)-2-methylpropan-1-ol] | 2.5 to 20 nM | 50 to 250 nM | –

SMILES | IC50 [1] | IC50 [2] | IC50 [1, 3]
CCOc1cc2ncc(-c3cc(F)nc(NCCCO)c3)n2cc1C1(F)CCN(C)CC1 [Example 242, 3-({4-[7-ethoxy-6-(4-fluoro-1-methylpiperidin-4-yl)imidazo[1,2-a]pyridin-3-yl]-6-fluoropyridin-2-yl}amino)propan-1-ol] | – | < 50 nM | < 1 nM
CCOc1cc2ncc(-c3cc(F)nc(NCCCO)c3)n2cc1S(=O)(=O)C(C)C [Example 243, 3-({4-[7-ethoxy-6-(propane-2-sulfonyl)imidazo[1,2-a]pyridin-3-yl]-6-fluoropyridin-2-yl}amino)propan-1-ol] | – | < 50 nM | < 1 nM
COc1cc2ncc(-c3ccnc(NCCCO)c3)n2cc1S(=O)(=O)C(C)(C)C [Example 247, 3-({4-[7-methoxy-6-(2-methylpropane-2-sulfonyl)imidazo[1,2-a]pyridin-3-yl]pyridin-2-yl}amino)propan-1-ol] | 2.5 to 20 nM | < 50 nM | –
COc1cc2ncc(-c3cc(F)nc(NCCCO)c3)n2cc1C(=O)N(C)C [Example 248, 3-{2-fluoro-6-[(3-hydroxypropyl)amino]pyridin-4-yl}-7-methoxy-N,N-dimethylimidazo[1,2-a]pyridine-6-carboxamide] | 2.5 to 20 nM | 50 to 250 nM | –
COc1cc2ncc(-c3cc(F)nc(NCC(C)(C)O)c3)n2cc1C(=O)N(C)C [Example 249, 3-{2-fluoro-6-[(2-hydroxy-2-methylpropyl)amino]pyridin-4-yl}-7-methoxy-N,N-dimethylimidazo[1,2-a]pyridine-6-carboxamide] | – | 250 to 1000 nM | > 20 nM
COc1cc2ncc(-c3cc(F)nc(NCCCO)c3)n2cc1CO [Example 250, 3-({6-fluoro-4-[6-(hydroxymethyl)-7-methoxyimidazo[1,2-a]pyridin-3-yl]pyridin-2-yl}amino)propan-1-ol] | 2.5 to 20 nM | 50 to 250 nM | –
CNC(=O)c1cn2c(-c3cc(F)nc(NCCCO)c3)cnc2cc1OC [Example 251, 3-{2-fluoro-6-[(3-hydroxypropyl)amino]pyridin-4-yl}-7-methoxy-N-methylimidazo[1,2-a]pyridine-6-carboxamide] | 1 to 2.5 nM | < 50 nM | –
COc1cc2ncc(-c3cc(NCCCO)cc(F)n3)n2cc1S(=O)(=O)C(C)(C)C [Example 252, 3-((2-(6-(tert-butylsulfonyl)-7-methoxyimidazo[1,2-a]pyridin-3-yl)-6-fluoropyridin-4-yl)amino)propan-1-ol] | – | 250 to 1000 nM | > 20 nM
CCCS(=O)(=O)Nc1cc(-c2cnc3cc(OC)c(S(=O)(=O)C(C)(C)C)cn23)cnc1N [Example 253, N-(2-amino-5-(6-(tert-butylsulfonyl)-7-methoxyimidazo[1,2-a]pyridin-3-yl)pyridin-3-yl)propane-1-sulfonamide] | – | > 1000 nM | > 20 nM
CCCS(=O)(=O)Nc1cncc(-c2cnc3cc(OC)c(S(=O)(=O)C(C)(C)C)cn23)c1 [Example 254] | – | > 1000 nM | > 20 nM
CCCS(=O)(=O)Nc1c(F)ccc(-c2cnc3cc(OC)c(S(=O)(=O)C(C)(C)C)cn23)c1F [Example 255, N-(3-(6-(tert-butylsulfonyl)-7-methoxyimidazo[1,2-a]pyridin-3-yl)-2,6-difluorophenyl)propane-1-sulfonamide] | > 20 nM | > 1000 nM | –
CCCS(=O)(=O)N(C)c1cccc(-c2cnc3cc(OC)c(S(=O)(=O)C(C)(C)C)cn23)c1 [Example 256, N-(3-(6-(tert-butylsulfonyl)-7-methoxyimidazo[1,2-a]pyridin-3-yl)phenyl)-N-methylpropane-1-sulfonamide] | – | > 1000 nM | > 20 nM
CCCS(=O)(=O)Nc1c(OC)ccc(-c2cnc3cc(OC)c(S(=O)(=O)C(C)(C)C)cn23)c1F [Example 257, N-(3-(6-(tert-butylsulfonyl)-7-methoxyimidazo[1,2-a]pyridin-3-yl)-2-fluoro-6-methoxyphenyl)propane-1-sulfonamide] | – | > 1000 nM | > 20 nM
CCCS(=O)(=O)Nc1cccc(-c2cnc3cc(OC)c(S(=O)(=O)C(C)(C)C)cn23)c1F [Example 258, N-(3-(6-(tert-butylsulfonyl)-7-methoxyimidazo[1,2-a]pyridin-3-yl)-2-fluorophenyl)propane-1-sulfonamide] | – | > 1000 nM | > 20 nM
CCCS(=O)(=O)Nc1cc(-c2cnc3cc(OC)c(S(=O)(=O)C(C)(C)C)cn23)cc(C#N)c1OC [Example 259, N-(5-(6-(tert-butylsulfonyl)-7-methoxyimidazo[1,2-a]pyridin-3-yl)-3-cyano-2-methoxyphenyl)propane-1-sulfonamide] | 2.5 to 20 nM | 250 to 1000 nM | –
